pIC50: −log10 of the molar value.
What was measured:
DGKζ = DGKζ (Homo sapiens (Human), UniProt Q13574); test: Biochemical DGK IC50 assay, DGKζ ADP-Glo assay; conditions: 0.5 nM enzyme, 140 μM ATP, 80 μM DAG; read-out: DGKζ ADP-Glo assay IC50
Method in brief: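 ADP formation measured by ADP-Glo luminescence, with test compounds at final 1.55–10000 nM or 23.3–150000 nM. Enzyme: purified full-length human DGKζ from Sf9 insect cells; substrate: DAG/PS micelles in 25 mM HEPES pH 7.0, 0.5 mM EDTA, octyl glucoside.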

DGKα = DGKα (Homo sapiens (Human), UniProt P23743); test: Biochemical DGK IC50 assay, DGKα ADP-Glo assay; conditions: 7.5 nM enzyme, 140 μM ATP, 80 μM DAG
Method in brief: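 Compounds at final 1.55˜10000 nM or 23.3˜150000 nM were tested against full-length DGKα. Substrate was lipid micelles of DAG and PS resuspended in 25 mM HEPES pH 7.0 with 0.5 mM EDTA and 160 mM octyl β-D-glucopyranoside. ADP formed was detected by ADP-Glo.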

DGKζ, sequence (Q13574 other isoform, or with tags, fused parts or gaps): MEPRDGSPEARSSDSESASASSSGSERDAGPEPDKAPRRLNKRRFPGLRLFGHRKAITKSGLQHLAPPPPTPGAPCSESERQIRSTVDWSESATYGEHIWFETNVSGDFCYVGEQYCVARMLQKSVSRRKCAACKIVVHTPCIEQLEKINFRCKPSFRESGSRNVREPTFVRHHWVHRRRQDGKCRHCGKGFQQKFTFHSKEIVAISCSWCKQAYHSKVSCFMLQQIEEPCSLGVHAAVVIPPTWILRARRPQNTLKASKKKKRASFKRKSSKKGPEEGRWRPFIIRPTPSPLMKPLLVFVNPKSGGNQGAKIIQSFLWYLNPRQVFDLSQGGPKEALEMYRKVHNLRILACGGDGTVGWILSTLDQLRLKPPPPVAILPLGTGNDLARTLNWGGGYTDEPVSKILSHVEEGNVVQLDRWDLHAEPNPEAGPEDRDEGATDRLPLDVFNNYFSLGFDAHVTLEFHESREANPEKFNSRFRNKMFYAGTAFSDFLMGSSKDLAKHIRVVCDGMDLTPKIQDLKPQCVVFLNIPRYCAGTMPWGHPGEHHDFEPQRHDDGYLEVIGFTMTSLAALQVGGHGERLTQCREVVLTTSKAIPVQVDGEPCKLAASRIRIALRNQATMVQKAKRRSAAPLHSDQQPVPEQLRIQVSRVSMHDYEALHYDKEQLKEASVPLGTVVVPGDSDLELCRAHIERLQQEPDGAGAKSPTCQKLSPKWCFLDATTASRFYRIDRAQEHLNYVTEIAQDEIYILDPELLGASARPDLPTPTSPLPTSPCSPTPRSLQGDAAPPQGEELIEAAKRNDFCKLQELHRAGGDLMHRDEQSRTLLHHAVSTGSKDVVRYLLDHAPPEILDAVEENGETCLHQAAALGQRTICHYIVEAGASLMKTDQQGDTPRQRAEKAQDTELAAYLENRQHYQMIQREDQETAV
DGKα, sequence (P23743 whole entry): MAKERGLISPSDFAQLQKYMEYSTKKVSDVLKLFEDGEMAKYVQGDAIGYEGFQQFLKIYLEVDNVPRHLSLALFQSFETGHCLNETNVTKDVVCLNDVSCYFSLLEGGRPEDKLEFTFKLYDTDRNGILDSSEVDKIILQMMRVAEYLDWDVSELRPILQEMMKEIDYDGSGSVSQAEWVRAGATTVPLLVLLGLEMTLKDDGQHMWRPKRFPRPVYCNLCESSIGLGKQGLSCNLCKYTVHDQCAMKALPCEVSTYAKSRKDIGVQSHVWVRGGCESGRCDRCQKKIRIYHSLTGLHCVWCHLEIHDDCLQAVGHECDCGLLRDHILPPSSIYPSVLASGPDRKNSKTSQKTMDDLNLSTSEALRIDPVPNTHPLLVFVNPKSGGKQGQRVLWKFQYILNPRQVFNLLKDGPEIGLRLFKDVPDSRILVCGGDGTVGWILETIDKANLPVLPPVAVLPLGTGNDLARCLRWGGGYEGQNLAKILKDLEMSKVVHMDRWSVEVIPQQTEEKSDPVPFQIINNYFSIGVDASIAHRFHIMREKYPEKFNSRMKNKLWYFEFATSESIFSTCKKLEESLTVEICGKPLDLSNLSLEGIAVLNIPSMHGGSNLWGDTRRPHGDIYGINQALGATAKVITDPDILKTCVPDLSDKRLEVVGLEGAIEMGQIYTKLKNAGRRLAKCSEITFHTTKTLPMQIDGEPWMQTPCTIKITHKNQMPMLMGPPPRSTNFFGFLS

With Cc1cnc2ccc(N(C)C3CC(C)N(c4cc(=O)n(C)c5cn(CC#N)nc45)CC3C)cc2n1 (centres unmarked) [Compound A298, 2-(7-(2,5-dimethyl-4-(methyl(3-methylquinoxalin-6-yl)amino)piperidin-1-yl)-4-methyl-5-oxo-4,5-dihydro-2H-pyrazolo[4,3-b]pyridin-2-yl)acetonitrile] the pIC50 (DGKζ) was 5.05 and the pIC50 (DGKα) was under 3.82.
With CC(c1ccc2c(c1)OC(C)(C)CO2)N1C[C@H](C)N(c2cc(=O)n(C)c3cn(CC#N)nc23)C[C@H]1C (single isomer, unassigned) [Compound A46f] the pIC50 (DGKζ) was 5.67 and the pIC50 (DGKα) was 4.22.
CC[C@@H]1CN(c2cc(=O)n(C)c3cn(CC#N)nc23)[C@@H](C)CN1C(C)c1ccc2nccnc2c1 (single isomer, unassigned) [Compound A97a] gave a pIC50 (DGKζ) of 8.07 and a pIC50 (DGKα) of 5.47.
Work on CC[C@@H]1CN(c2cc(=O)n(C)c3cn(CC#N)nc23)[C@@H](CC)CN1C(=O)c1cnc2ccccc2n1 [Compound A374] yielded a pIC50 (DGKζ) of 7.29 and a pIC50 (DGKα) of 6.21.
CC(c1ccc2nc(C(F)(F)F)cnc2c1)N1C[C@H](C)N(c2cc(=O)n(C)c3cn(CC#N)nc23)C[C@H]1C (stereo partly drawn) [Compound A315, 2-(7-((2S,5R)-2,5-dimethyl-4-(1-(2-(trifluoromethyl)quinoxalin-6-yl)ethyl)piperazin-1-yl)-4-methyl-5-oxo-4,5-dihydro-2H-pyrazolo[4,3-b]pyridin-2-yl)acetonitrile] gave a pIC50 (DGKζ) of 5.44 and a pIC50 (DGKα) of 4.21.
CC(c1ccc2ccc(C#N)cc2c1)N1C[C@H](C)N(c2cc(=O)n(C)c3cn(CC#N)nc23)C[C@H]1C (some centres unmarked) [Compound A307] gave a pIC50 (DGKζ) of 5.76 and a pIC50 (DGKα) of 5.61.
Molecule C=C(C)n1cc2c(n1)c(N1C[C@@H](C)N(Cc3ccc(OC(F)(F)F)cc3)C[C@@H]1C)cc(=O)n2C [Compound A26, 7-((2S,5R)-2,5-dimethyl-4-(4-(trifluoromethoxy)benzyl)piperazin-1-yl)-4-methyl-2-(prop-1-en-2-yl)-2,4-dihydro-5H-pyrazolo[4,3-b]pyridin-5-one] has a pIC50 (DGKζ) of 4.01 and a pIC50 (DGKα) of 8.37.
For CC[C@@H]1CN(c2cc(=O)n(C)c3cn(CC#N)nc23)[C@@H](C)CN1C(C)c1ccc(C(F)(F)F)cc1F (single isomer, unassigned) [Compound A202b], the pIC50 (DGKζ) was 5.52 and the pIC50 (DGKα) was 5.89.
CC[C@H]1CN(C(C)c2ccc(C)nn2)[C@H](CC)CN1c1cc(=O)n(C)c2cn(CC#N)nc12 (some centres unmarked) [Compound A365] showed a pIC50 (DGKζ) of 5.33 and a pIC50 (DGKα) of 6.10.
With CC[C@H]1CN(C(C)c2ccc3ncn(C)c3c2)[C@H](CC)CN1c1cc(=O)n(C)c2cn(CC#N)nc12 (some centres unmarked) [Compound A64] the pIC50 (DGKζ) was 6.64 and the pIC50 (DGKα) was 5.55.
In the case of CC(c1ccc2nccnc2c1)N1C[C@H](C)N(c2cc(=O)n(C)c3cn(CCO)nc23)C[C@H]1C (some centres unmarked) [Compound A9], the pIC50 (DGKζ) was 4.52 and the pIC50 (DGKα) was 4.57.
Molecule CC[C@@H]1CN(c2cc(=O)n(C)c3cn(CC#N)nc23)[C@@H](CC)CN1C(=O)c1ccc(C)cn1 [Compound A370] has a pIC50 (DGKζ) of under 5.00 and a pIC50 (DGKα) of 6.44.
For CC[C@H]1CN(C(C)c2ccc(F)cn2)[C@H](CC)CN1c1cc(=O)n(C)c2cn(CC#N)nc12 (some centres unmarked) [Compound A74], the pIC50 (DGKζ) was 6.08 and the pIC50 (DGKα) was 8.42.
With Cc1nc2cc(C(C)N3C[C@H](C)N(c4cc(=O)n(C)c5cn(CC#N)nc45)C[C@H]3C)ccc2s1 (some centres unmarked) [Compound A320] the pIC50 (DGKζ) was 6.80 and the pIC50 (DGKα) was 4.94.
Work on CC[C@H]1CN(C(C)c2ccc3ccccc3c2)[C@H](CC)CN1c1cc(=O)n(C)c2cn(CC#N)nc12 (some centres unmarked) [Compound A50] yielded a pIC50 (DGKζ) of 6.14 and a pIC50 (DGKα) of 6.10.
CC[C@H]1CN(C(C)c2ccc3cc(C)ncc3c2)[C@H](CC)CN1c1cc(=O)n(C)c2cn(CC#N)nc12 (some centres unmarked) [Compound A366] gave a pIC50 (DGKζ) of 6.19 and a pIC50 (DGKα) of 6.44.
CC[C@H]1CN(C(C)c2cccc(CO)c2)[C@H](CC)CN1c1cc(=O)n(C)c2cn(CC#N)nc12 (some centres unmarked) [Compound A121b] gave a pIC50 (DGKζ) of under 5.00 and a pIC50 (DGKα) of 5.38.
CC[C@@H]1CN(c2cc(=O)n(C)c3cn(CC#N)nc23)[C@@H](C)CN1C(c1ccc(F)cc1)c1ccc(C(F)(F)F)cn1 (stereo partly drawn) [Compound A332, 2-(7-((2S,5R)-5-ethyl-4-((4-fluorophenyl)(5-(trifluoromethyl)pyridin-2-yl)methyl)-2-methylpiperazin-1-yl)-4-methyl-5-oxo-4,5-dihydro-2H-pyrazolo[4,3-b]pyridin-2-yl)acetonitrile] was tested, and the pIC50 (DGKζ) was 6.77 and the pIC50 (DGKα) was 6.91.
CC[C@H]1CN(C(C)c2ccc(C)c(OC)n2)[C@H](CC)CN1c1cc(=O)n(C)c2cn(CC#N)nc12 (some centres unmarked) [Compound A364] was tested, and the pIC50 (DGKζ) was 6.54 and the pIC50 (DGKα) was 5.60.
Work on CC[C@H]1CN(C(C)c2ccc(CN3C[C@@H](C)O[C@@H](C)C3)cc2)[C@H](CC)CN1c1cc(=O)n(C)c2cn(CC#N)nc12 (stereo partly drawn) [Compound A343, 2-(7-((2S,5R)-4-(1-(4-(((2S,6R)-2,6-dimethylmorpholino)methyl)phenyl)ethyl)-2,5-diethylpiperazin-1-yl)-4-methyl-5-oxo-4,5-dihydro-2H-pyrazolo[4,3-b]pyridin-2-yl)acetonitrile] yielded a pIC50 (DGKζ) of 6.17 and a pIC50 (DGKα) of 6.61.
Molecule Cc1nc2cc(C(C)N3C[C@H](C)N(c4cc(=O)n(C)c5cn(CC#N)nc45)C[C@H]3C)ccc2o1 (some centres unmarked) [Compound A41] has a pIC50 (DGKζ) of 6.00 and a pIC50 (DGKα) of under 5.00.
CC[C@H]1CN(C(C)c2cc3cnccc3cn2)[C@H](CC)CN1c1cc(=O)n(C)c2cn(CC#N)nc12 (single isomer, unassigned) [Compound A368a] gave a pIC50 (DGKζ) of 5.18 and a pIC50 (DGKα) of 5.31.
CC#CCn1cc2c(n1)c(N1C[C@@H](CC)N(C(C)c3nc4ccccc4n3CC)C[C@@H]1CC)cc(=O)n2C (some centres unmarked) [Compound A186] showed a pIC50 (DGKζ) of 7.23 and a pIC50 (DGKα) of 5.20.
Work on CC[C@H]1CN(C(C)c2ccc(F)cc2C(C)OC)[C@H](CC)CN1c1cc(=O)n(C)c2cn(CC#N)nc12 (stereo partly drawn) [Compound A327, 2-(7-((2S,5R)-2,5-diethyl-4-(1-(4-fluoro-2-(1-methoxyethyl)phenyl)ethyl)piperazin-1-yl)-4-methyl-5-oxo-4,5-dihydro-2H-pyrazolo[4,3-b]pyridin-2-yl)acetonitrile] yielded a pIC50 (DGKζ) of 7.72 and a pIC50 (DGKα) of under 3.82.
For CC(c1ccc2nccnc2c1)N1C[C@H](C)N(c2cc(=O)[nH]c3cn(CC#N)nc23)C[C@H]1C (stereo partly drawn) [Compound A102, 2-(7-((2S,5R)-2,5-dimethyl-4-(1-(quinoxalin-6-yl)ethyl)piperazin-1-yl)-5-oxo-4,5-dihydro-2H-pyrazolo[4,3-b]pyridin-2-yl)acetonitrile], the pIC50 (DGKζ) was 6.54 and the pIC50 (DGKα) was under 5.00.
CC[C@H]1CN(C(C)c2cc3ccccn3n2)[C@H](CC)CN1c1cc(=O)n(C)c2cn(CC#N)nc12 (some centres unmarked) [Compound A389] showed a pIC50 (DGKζ) of 6.70 and a pIC50 (DGKα) of 7.37.
CC[C@H]1CN(C(C)c2ccc(F)cc2)[C@H](CC)CN1c1cc(=O)n(C)c2cn(CC#N)nc12 (some centres unmarked) [Compound A67] showed a pIC50 (DGKζ) of 6.89 and a pIC50 (DGKα) of 8.00.
Molecule CC[C@H]1CN(C(C)c2ccc(CN3CCC(F)(F)CC3)nc2)[C@H](CC)CN1c1cc(=O)n(C)c2cn(CC#N)nc12 (single isomer, unassigned) [Compound A381a] has a pIC50 (DGKζ) of 6.54 and a pIC50 (DGKα) of 6.34.
CC[C@@H]1CN(c2cc(=O)n(C)c3cn(CC#N)nc23)[C@@H](CC)CN1C(=O)c1cc2ccccc2cn1 [Compound A372] was tested, and the pIC50 (DGKζ) was 5.46 and the pIC50 (DGKα) was 6.90.
CC[C@H]1CN(C(C)c2cccn(C)c2=O)[C@H](CC)CN1c1cc(=O)n(C)c2cn(CC#N)nc12 (some centres unmarked) [Compound A104] showed a pIC50 (DGKζ) of under 5.00 and a pIC50 (DGKα) of under 5.00.
Molecule CC[C@@H]1CN(c2c(C#N)c(=O)[nH]c3cn(CC#N)nc23)[C@@H](C)CN1C(C)c1ccc2nccnc2c1 (single isomer, unassigned) [Compound A200a] has a pIC50 (DGKζ) of 6.99 and a pIC50 (DGKα) of 5.15.
Molecule CC[C@H]1CN(C(C)c2ccc(Cl)cn2)[C@H](CC)CN1c1cc(=O)n(C)c2cn(CC#N)nc12 (single isomer, unassigned) [Compound A360a] has a pIC50 (DGKζ) of 5.42 and a pIC50 (DGKα) of 6.85.
Cc1c2c(nn1CC#N)c(N1C[C@@H](C)N(C(C)c3ccc4nccnc4c3)C[C@@H]1C)cc(=O)n2C (stereo partly drawn) [Compound A209, 2-(7-((2S,5R)-2,5-dimethyl-4-(1-(quinoxalin-6-yl)ethyl)piperazin-1-yl)-3,4-dimethyl-5-oxo-4,5-dihydro-2H-pyrazolo[4,3-b]pyridin-2-yl)acetonitrile] showed a pIC50 (DGKζ) of 7.30 and a pIC50 (DGKα) of 4.67.
In the case of CC[C@H]1CN(C(C)c2nc3cccnc3n2CC)[C@H](CC)CN1c1cc(=O)n(C)c2cn(CC#N)nc12 (single isomer, unassigned) [Compound A185a], the pIC50 (DGKζ) was under 5.00 and the pIC50 (DGKα) was under 5.00.
For CC[C@H]1CN(C(C)c2ccc3c(c2)NCCO3)[C@H](CC)CN1c1cc(=O)n(C)c2cn(CC#N)nc12 (some centres unmarked) [Compound A138], the pIC50 (DGKζ) was 6.32 and the pIC50 (DGKα) was 5.89.
CC[C@H]1CN(C(C)c2ccc(F)cc2C(F)(F)F)[C@H](CC)CN1c1cc(=O)n(C)c2cn(CC#N)nc12 (single isomer, unassigned) [Compound A196b] gave a pIC50 (DGKζ) of 7.42 and a pIC50 (DGKα) of 4.03.
With CCC(c1ccc(C2CC2)cc1)N1C[C@H](C)N(c2cc(=O)n(C)c3cn(CC#N)nc23)C[C@H]1C (some centres unmarked) [Compound A36] the pIC50 (DGKζ) was 6.01 and the pIC50 (DGKα) was 6.26.
Work on CC[C@H]1CN(C(C)c2cnn(C)c2C(F)(F)F)[C@H](CC)CN1c1cc(=O)n(C)c2cn(CC#N)nc12 (stereo partly drawn) [Compound A233, 2-(7-((2S,5R)-2,5-diethyl-4-(1-(1-methyl-5-(trifluoromethyl)-1H-pyrazol-4-yl)ethyl)piperazin-1-yl)-4-methyl-5-oxo-4,5-dihydro-2H-pyrazolo[4,3-b]pyridin-2-yl)acetonitrile] yielded a pIC50 (DGKζ) of 7.48 and a pIC50 (DGKα) of 5.16.
With CC(c1ccc2nccnc2c1)N1C[C@H](C)N(c2cc(=O)n(C)c3cn(CCN(C)C)nc23)C[C@H]1C (some centres unmarked) [Compound A11] the pIC50 (DGKζ) was under 3.82 and the pIC50 (DGKα) was under 3.82.
For CC[C@@H]1CN(c2cc(=O)n(C)c3cn(CC#N)nc23)[C@@H](CC)CN1Cc1ccc(F)cc1C(F)(F)F [Compound A241], the pIC50 (DGKζ) was 6.57 and the pIC50 (DGKα) was 5.19.

Source: patent publication US20240270751A1, “Pyrazolopyridinone Compounds” (BeiGene Ltd., priority 2021, published 2024)
